Laboratory results taken from patent publication US9139485B2, “Plant treatment agent” (UNIVERSITI PUTRA MALAYSIA, priority 2011, dated 2015).
Marks after values point to notes of the source that are not given here.

What was measured:
[1] = system: Hybrid no. 5 variety (Zea mays L.); assay: Greenhouse pot experiment: dry weight, N, P, K uptake and use efficiency of maize plant; format: in vivo; conditions: 56 days after planting
Description: A pot experiment was conducted in a greenhouse of Universiti Putra Malaysia Bintulu Sarawak Campus, Malaysia using randomized complete block design (RCBD) with three replications. Each pot size was 22×28 cm. Each was filled with 10 kg soil (based on bulk density of the soil). Hybrid no. 5 variety (Zea mays L.) was used as the test crop. Its N, P, and K requirement were 60 kg N, 60 kg P2O5 and 40 kg K2O (130 kg ha^−1 urea: 130 kg ha^−1 TSP: 67 kg ha^−1 KCl). The fertilizer requirement was scaled down to per pot basis equivalent to 2.02 g of urea, […]. The volume of water used for each pot was based on field capacity (70%). The three treatments devised for this experiment were as follows: • i. No fertilizer (T0) • ii. 2.02 g urea (T1) • iii. 2.02 g urea+7 L peat soil water (T2)
All treatments were applied on the 10th day after planting (DAP). However TSP and KCl which were common to all the treatments were applied on 10 DAP and 28 DAP. The plants were monitored until tassel stage. Tassel stage is the maximum growth stage for plants before they enter productive stage.
Harvesting was done on the 56th DAP. The whole plant including leaves and stem were harvested. The remaining roots in the soil were removed carefully. They were cleaned using tap and distilled water. The plant parts (leaves, stem and roots) were then oven-dried at 60° C. until constant weight was attained afterwhich they weighed using a digital balance. Soil samples were also taken from the pots, air-dried, pounded and sieved to a pass 2 mm before they were analyzed for pH, exchangeable cations (K, Mg, and Ca), total carbon, total N, available P, exchangeable ammonium and available nitrate, using standard procedures. Each plants part was ground and analyzed for total K, Mg, Ca, Na, N, and P.
Nitrogen, P and K uptake in leaves, stem and roots were determined by multiplying the concentration with the dry weight of the plant parts. Nitrogen, P and K use efficiency were determined by the formula of Pomares-Gracia and Pratt (1987).
Analysis of variance (ANOVA) was used to test the effect of treatments while means of treatments were compared using Duncan's Test. Statistical Analysis System (SAS Ver. 9.2) was used for the statistical analysis.

[2] = Selected chemical properties of peat soil water and urea; format: physicochemical; conditions: glass electrode
Description: Peat soil water (waste water) was collected from natural flows of peat water at Suai Miri Sarawak, Malaysia. The mineral soil used was Bekenu Series (Fine loamy, siliceous, isohyperthermic, red-yellow to yellow Tipik Tualemkuts). It was sampled in an undisturbed area of Universiti Putra Malaysia Bintulu Sarawak Campus, Malaysia using an auger. The soil taken at 0-15 cm depth was air dried and ground to pass 2.0 mm sieve for laboratory experiment. The soil texture was determined using the hydrometer method (Bouyoucos, 1962) and its field capacity and bulk density determined by the method described by Tan (2005). The pH of the soil was determined in a 1:2 soil:distilled water suspension and KCl using a glass electrode. However, the pH of the peat soil water was determined directly from filtered samples using a glass electrode. The soil total carbon, N and organic matter were determined using LECO CHNS Analyzer (Leco Truspec Micro Elemental Analyzer CHNS, New York). Soil available P was extracted using the double acid method (Tan, 2005) followed by blue method (Murphy and Riley, 1962). The Kjedhal method was used to determine total N. Exchangeable cations were extracted using leaching method and their concentrations were afterwards determined using followed Atomic Absorption Spectrometry (AAS). Soil CEC was determined by the leaching method followed by steam distillation.

## NC(N)=O [Treatment T1, urea]
[1]
  dry weight of maize plant, Leaves: 6.00^b g plant^−1
  dry weight of maize plant, Roots: 3.18^b g plant^−1
  dry weight of maize plant, Stems: 5.71^d g plant^−1
  dry weight of maize plant, Total: 14.89^b g plant^−1
[1]; Leaves
  K use efficiency of maize plant: 1.17^a %
  N use efficiency of maize plant: 1.26^a %
  P use efficiency of maize plant: 0.31^a %
[1]; Roots
  K use efficiency of maize plant: 1.75^a %
  N use efficiency of maize plant: 0.37^a %
  P use efficiency of maize plant: 0.40^a %
[1]; Stem
  K use efficiency of maize plant: 2.17^a %
  N use efficiency of maize plant: 0.24^d %
  P use efficiency of maize plant: 0.32^a %
[1]; Total
  K use efficiency of maize plant: 5.09^a %
  N use efficiency of maize plant: 1.87^a %
  P use efficiency of maize plant: 1.03^a %
[2]; listed as Urea
  pHw: 8.00
[2]; listed as urea
  pHw: basic
